Data as given in US20250345350A1, “TREATING PAIN ASSOCIATED WITH CENTRAL SENSITIZATION” (Medicon Pharmaceuticals, Inc., priority 2022, published 2025).

Assays:
[1] = tested on: paclitaxel-induced CIPN in C57BL/6J mice; assay: PWT (von Frey), mouse model of CIPN, oral administration (Example 5); format: in vivo; conditions: day 7; oral gavage three times a day for 7 days, PS 50 mg/kg, sulindac 33 mg/kg
Source text: CIPN was induced in mice with chemotherapeutic agents using established protocols (Carozzi et al, 2010; Currie et al, 2019; Eldridge et al, 2020). […] This dosing regimen of paclitaxel produces pain associated with CIPN with time courses that are similar to those of pain after paclitaxel administration in cancer patients.
Group 1: naive mice (i.e. no paclitaxel, n=8) • 2. Group 2: paclitaxel only (n=8) • 3. Group 3: paclitaxel plus vehicle (n=8) • 4. […] Group 5: paclitaxel plus sulindac (n=8)
The PWT test was performed on day 7.

[2] = tested on: oxaliplatin-induced pain associated with central sensitization in C57BL/6J mice; assay: Mechanical allodynia (von Frey), oxaliplatin-induced pain, topical PS 8% (Example 2); format: in vivo, mouse
Source text: Food and water were available ad libitum.
Protocol for the Treatment of Established Pain Associated with Central Sensitization with PS
Paw withdrawn, licking or shaking were considered positive responses.

[3] = Preliminary in vivo evidence, topical PS hydrogel, migraine pain (Example 12)
[4] = tested on: NTG-induced migraine in mice; assay: PWT (von Frey), NTG-induced migraine mouse model, oral (Example 14); conditions: 30 min after oral dose given 30 min after NTG; PS 50 mg/kg, sulindac 33 mg/kg
Protocol: In line with the earlier Examples, migraine was induced using 0.4 mg of NTG was administered sublingually in the form of a finely crushed 0.4 mg NTG tablet (Greenstone Brand).
Group 1: baseline (i.e, no NTG treatment, n=6) • 2. Group 2: vehicle (n=6) • 3. […] Group 4: sulindac (n=6)
Mechanical allodynia was determined using the method of von Frey filaments in line with that performed in the earlier Examples. […] The mechanical threshold, expressed as g, indicates the force of the von Frey filament to which the animal reacted.

CCOP(=O)(OCC)OCCCCOC(=O)CC1=C(C)/C(=C/c2ccc([S+](C)[O-])cc2)c2ccc(F)cc21 (centres unmarked) [PS, phosphosulindac]
PWT, g Mean ± SEM [1]: 0.99 ± 0.13 g | mechanical allodynia score, mean±SEM ([2]; after PS treatment (day 22), PS 8% ointment 3x/day): 1.8 ± 0.09 g | mechanical allodynia score, mean±SEM ([2]; day -15 baseline of PS group): 1.76 ± 0.13 g | analgesic effect on migraine pain [3]: striking analgesic effect | PWT, g Mean ± SEM [4]: 1.96 ± 0.49 g
